Laboratory results taken from patent US20240174690A1, “ANNULATED 2-AMINO-3-CYANO THIOPHENES AND DERIVATIVES FOR THE TREATMENT OF CANCER” (BOEHRINGER INGELHEIM INTERNATIONAL GMBH, priority 2021, published 2024).
≈ marks a conversion by molar mass, not a printed value. Like-named read-outs stand apart in the source and are kept apart here.

What was measured:
NCI-H358 cells = assay: NCI-H358 CTG proliferation assay (120 h) (NSCLC, G12C); format: cell-based, human; settings: assay 2, CTG, read-out: H358 (assay 2) IC50
Summary of the method: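 NCI-H358 cells (KRAS G12C) were seeded at 2000/well (assay 1) or 200/well (assay 2) in RPMI-1640 + 10% FCS and dosed with a logarithmic series, DMSO-normalized. After 120 h, viability was read by CellTiter-Glo luminescence as percent of DMSO control, with a T0 read at dosing. IC50 came from a four-parameter fit.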

AsPC-1 cells = assay: AsPC-1 CTG proliferation assay (120 h) (pancreatic cancer, G12D); format: cell-based
Summary of the method: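 AsPC-1 cells (KRAS G12D), 2000/well in RPMI with 10% FCS, seeded overnight, then treated with compound for 120 h at 37 °C. Viability by CellTiter-Glo luminescence as percent of DMSO control. IC50 from a four-parameter non-linear fit.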

SAS cells = assay: SAS CTG proliferation assay (120 h) (HNSCC, wt amplified); format: cell-based
Summary of the method: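 SAS cells plated at 300 per well in DMEM:F12 with 10% FCS and left overnight, then given compounds acoustically. After 120 h exposure, viability read by CellTiter-Glo as percent of DMSO control. IC50 from four-parameter non-linear regression.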

[1] = Plasma protein binding assay (PPB), equilibrium dialysis, 10% FCS in PBS; format: in vitro ADME; settings: for fraction unbound: bovine, read-out: PPB 10% FCS (% fu)
Summary of the method: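 Equilibrium dialysis (5-10 kg/mol cut-off membrane) of 1-10 μmol/L test compound in 10% FCS/PBS against PBS with or without dextran, 3-5 h at 37° C. Compound in each chamber quantified by LC-MS after protein precipitation; fu calculated from Cserum and Cbuffer.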

[2] = Solubility measurement (DMSO solution method), McIlvaine buffer pH 4.5 or 6.8; format: physicochemical; settings: DMSO stock diluted to 250 μM, 24 h shaking at ambient temperature; for solubility at 24 h: aqueous buffer, kinetic from dmso stock
Summary of the method: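 DMSO stock diluted into McIlvaine buffer, pH 4.5 or 6.8, to 250 µM final, shaken 24 h at ambient temperature. Precipitate removed by filtration; filtrate quantified by LC-UV against a fully dissolved reference in acetonitrile/water 1:1.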

[3] = McIlvaine buffer pH 4.5, read-out: solubility pH 4.5
[4] = McIlvaine buffer pH 6.8, read-out: solubility pH 6.8

| SMILES | IC50 (NCI-H358 cells; Homo sapiens) | IC50 (AsPC-1 cells; Homo sapiens, ASPC1) | IC50 (SAS cells) | fraction unbound [1] | solubility at 24 h [2, 3] | solubility at 24 h [2, 4] | IC50 (NCI-H358 cells) | IC50 (AsPC-1 cells) | PPB 10% FCS (% fu) ([1]; fraction unbound) | solubility pH 4.5 ([2]; McIlvaine buffer pH 4.5) | solubility pH 6.8 ([2]; McIlvaine buffer pH 6.8) |
| --- | --- | --- | --- | --- | --- | --- | --- | --- | --- | --- | --- |
| CO[C@@H]1C[C@@H]([C@H](C)Oc2cc(N3CCNC4(CC4)C3)nc(-c3noc4c3CCC[C@@]43CCCc4sc(N)c(C#N)c43)n2)N(C)C1 [II-187] | 135 nM | 30 nM | 1150 nM | 0.14 | > 140 µg/mL | 119 µg/mL (≈ 189 µM) | – | – | – | – | – |
| C[C@H](Oc1cc(-n2ccc(C3(O)COC3)n2)nc(-c2noc3c2CCC[C@@]32CCCc3sc(N)c(C#N)c32)n1)[C@@H]1CCCN1C [II-189] | 19 nM | 1150 nM | 51 nM | 0.16 | > 152 µg/mL | 103 µg/mL (≈ 164 µM) | – | – | – | – | – |
| C[C@H](NC(=O)c1ccn(-c2cc(O[C@@H](C)[C@@H]3CCCN3C)nc(-c3noc4c3CCC[C@@]43CCCc4sc(N)c(C#N)c43)n2)n1)c1ccccn1 [II-191] | 3 nM | 425 nM | 10 nM | 0.03 | 73 µg/mL (≈ 104 µM) | 12 µg/mL (≈ 17 µM) | – | – | – | – | – |
| C[C@H](Oc1cc(-n2ccc(C(=O)N[C@@H]3CCOC3)n2)nc(-c2noc3c2CCC[C@@]32CCCc3sc(N)c(C#N)c32)n1)[C@@H]1CCCN1C [II-192] | 2 nM | 305 nM | 25 nM | 0.24 | 124 µg/mL (≈ 185 µM) | 59 µg/mL (≈ 88.1 µM) | – | – | – | – | – |
| C[C@H](Oc1cc(-n2ccc(C(=O)N[C@H]3CCOC3)n2)nc(-c2noc3c2CCC[C@@]32CCCc3sc(N)c(C#N)c32)n1)[C@@H]1CCCN1C [II-193] | – | – | 10 nM | – | – | – | 1 nM | 176 nM | 20 % fu | 15 μg/ml | <1 μg/ml |
| C[C@H](Oc1cc(-n2ccc(C(=O)N(C)C3COC3)n2)nc(-c2noc3c2CCC[C@@]32CCCc3sc(N)c(C#N)c32)n1)[C@@H]1CCCN1C [II-194] | 3 nM | 411 nM | 37 nM | 0.08 | 116 µg/mL (≈ 173 µM) | 31 µg/mL (≈ 46.3 µM) | – | – | – | – | – |
| COCCNC(=O)c1ccn(-c2cc(O[C@@H](C)[C@@H]3CCCN3C)nc(-c3noc4c3CCC[C@@]43CCCc4sc(N)c(C#N)c43)n2)n1 [II-195] | 4 nM | 282 nM | 37 nM | 0.24 | 131 µg/mL (≈ 199 µM) | 71 µg/mL (≈ 108 µM) | – | – | – | – | – |
| CO[C@H]1CCN(C)[C@@H]1[C@H](C)Oc1cc(-n2ccc(C(=O)N[C@@H](C)c3ccccn3)n2)nc(-c2noc3c2CCC[C@@]32CCCc3sc(N)c(C#N)c32)n1 [II-196] | 2 nM | 248 nM | 9 nM | 0.01 | 94 µg/mL (≈ 128 µM) | < 1 µg/mL | – | – | – | – | – |
| CO[C@H]1CCN(C)[C@@H]1[C@H](C)Oc1cc(-n2ccc(C(=O)N[C@@H]3CCOC3)n2)nc(-c2noc3c2CCC[C@@]32CCCc3sc(N)c(C#N)c32)n1 [II-197] | 1 nM | 226 nM | 8 nM | 0.04 | > 173 µg/mL | 5 µg/mL (≈ 7.14 µM) | – | – | – | – | – |
| CO[C@H]1CCN(C)[C@@H]1[C@H](C)Oc1cc(-n2ccc(C(=O)N[C@H]3CCOC3)n2)nc(-c2noc3c2CCC[C@@]32CCCc3sc(N)c(C#N)c32)n1 [II-198] | 1 nM | 143 nM | 8 nM | 0.06 | 12 µg/mL (≈ 17.1 µM) | < 1 µg/mL | – | – | – | – | – |
| CO[C@H]1CCN(C)[C@@H]1[C@H](C)Oc1cc(-n2ccc(C(=O)N(C)C3COC3)n2)nc(-c2noc3c2CCC[C@@]32CCCc3sc(N)c(C#N)c32)n1 [II-199] | 5 nM | 446 nM | 17 nM | 0.07 | > 163 µg/mL | 9 µg/mL (≈ 12.9 µM) | – | – | – | – | – |
| COCCNC(=O)c1ccn(-c2cc(O[C@@H](C)[C@@H]3[C@@H](OC)CCN3C)nc(-c3noc4c3CCC[C@@]43CCCc4sc(N)c(C#N)c43)n2)n1 [II-200] | 3 nM | 340 nM | 8 nM | 0.03 | > 163 µg/mL | 4 µg/mL (≈ 5.82 µM) | – | – | – | – | – |
| CO[C@H]1CCN(C)[C@@H]1[C@H](C)Oc1cc(-n2ccc(C(N)=O)n2)nc(-c2noc3c2CCC[C@@]32CCCc3sc(N)c(C#N)c32)n1 [II-201] | 6 nM | 651 nM | 20 nM | 0.07 | > 128 µg/mL | 6 µg/mL (≈ 9.53 µM) | – | – | – | – | – |
| C[C@H](Oc1cc(-n2cc3ccn([C@H]4CCOC4)c(=O)c3n2)nc(-c2noc3c2CCC[C@@]32CCCc3sc(N)c(C#N)c32)n1)[C@@H]1CCCN1C [II-202] | 5 nM | 380 nM | 21 nM | 0.05 | > 166 µg/mL | 58 µg/mL (≈ 83.6 µM) | – | – | – | – | – |
| C[C@H](Oc1cc(-n2cc3ccn([C@@H]4CCOC4)c(=O)c3n2)nc(-c2noc3c2CCC[C@@]32CCCc3sc(N)c(C#N)c32)n1)[C@@H]1CCCN1C [II-203] | 5 nM | 483 nM | 18 nM | 0.04 | > 159 µg/mL | 65 µg/mL (≈ 93.7 µM) | – | – | – | – | – |
| C[C@H](Oc1cc(-n2cc3ccn(C[C@H]4CCOC4)c(=O)c3n2)nc(-c2noc3c2CCC[C@@]32CCCc3sc(N)c(C#N)c32)n1)[C@@H]1CCCN1C [II-204] | 5 nM | 508 nM | 17 nM | 0.03 | 4 µg/mL (≈ 5.65 µM) | 5 µg/mL (≈ 7.06 µM) | – | – | – | – | – |
| C[C@H](Oc1cc(-n2cc3ccn(C4CCOCC4)c(=O)c3n2)nc(-c2noc3c2CCC[C@@]32CCCc3sc(N)c(C#N)c32)n1)[C@@H]1CCCN1C [II-206] | 4 nM | 194 nM | 25 nM | 0.05 | 17 µg/mL (≈ 24 µM) | 2 µg/mL (≈ 2.83 µM) | – | – | – | – | – |
| [2H]C([2H])([2H])N1C[C@H](F)C[C@H]1[C@H](C)Oc1cc(N2CCN(C([2H])([2H])[2H])C3(CC3)C2)nc(-c2noc3c2CCC[C@@]32CCCc3sc(N)c(C#N)c32)n1 [II-207] | 287 nM | 82 nM | 1080 nM | 0.09 | > 134 µg/mL | < 1 µg/mL | – | – | – | – | – |
| C[C@H](Oc1cc(-n2ccc(-c3cn(C4CCOCC4)nn3)n2)nc(-c2noc3c2CCC[C@@]32CCCc3sc(N)c(C#N)c32)n1)[C@@H]1CCCN1C [II-210] | 2 nM | 210 nM | 14 nM | 0.02 | 5 µg/mL (≈ 7.06 µM) | < 1 µg/mL | – | – | – | – | – |
| C[C@H](Oc1cc(-n2ccc(-c3cn([C@@H]4CCOC4)nn3)n2)nc(-c2noc3c2CCC[C@@]32CCCc3sc(N)c(C#N)c32)n1)[C@@H]1CCCN1C [II-211] | 1 nM | 297 nM | 17 nM | 0.02 | 20 µg/mL (≈ 28.8 µM) | 4 µg/mL (≈ 5.77 µM) | – | – | – | – | – |
| C[C@H](Oc1cc(-n2ccc(-c3cn([C@H]4CCOC4)nn3)n2)nc(-c2noc3c2CCC[C@@]32CCCc3sc(N)c(C#N)c32)n1)[C@@H]1CCCN1C [II-212] | 1 nM | 170 nM | 19 nM | 0.05 | 16 µg/mL (≈ 23.1 µM) | < 1 µg/mL | – | – | – | – | – |
| C[C@H](Oc1cc(-n2ccc(-c3cn(CC4(C)COC4)nn3)n2)nc(-c2noc3c2CCC[C@@]32CCCc3sc(N)c(C#N)c32)n1)[C@@H]1CCCN1C [II-213] | 1 nM | 275 nM | 13 nM | 0.02 | 23 µg/mL (≈ 32.5 µM) | 2 µg/mL (≈ 2.83 µM) | – | – | – | – | – |
